Reference: ChEMBL document CHEMBL3272216 (J Med Chem, 1977)
Where a SMILES comes first, the peptide text is derived from it. Bridges are numbered along the chain shown (N, C = ends). [ ]: non-standard residue; d: D form. pGlu = O=C1CC[C@@H](C(=O)O)N1

Assays:
[1] = Retention time of the compound in 0.01 M NH4OAc buffer at pH 4.5 by HPLC analysis; type: physicochemical
[2] = test system: Rattus norvegicus; assay: Induction of hypothermia in cold-exposed Sprague-Dawley rat compound administered intracisternally measured 60 mins post dose relative to neurotensin; type: functional
[3] = species on record: Rattus norvegicus; assay: Binding affinity to neurotensin receptor in rat mast cells at 1 ng to 10 ug after 15 mins relative to neurotensin; type: cell-based

Row | Structure (SMILES) | Retention_time [1] [min] | Ratio [2] | Ratio [3]
1 | CC[C@H](C)[C@H](NC(=O)[C@H](Cc1ccc(O)cc1)NC(=O)[C@@H]1CCCN1C(=O)[C@H](CCCNC(=N)N)NC(=O)[C@@H](N)CCCNC(=N)N)C(=O)N[C@@H](CC(C)C)C(=O)O [listing 1 of 2 here] | 8.2 |  | 
2 | CC[C@H](C)[C@H](NC(=O)[C@@H](Cc1ccccc1)NC(=O)[C@@H]1CCCN1C(=O)[C@H](CCCN=C(N)N)NC(=O)[C@H](CCCN=C(N)N)NC(=O)[C@@H]1CCCN1C(=O)[C@H](CCCCN)NC(=O)[C@H](CC(N)=O)NC(=O)[C@H](CCC(=O)O)NC(=O)[C@H](Cc1ccc(O)cc1)NC(=O)[C@H](CC(C)C)NC(=O)[C@@H]1CCC(=O)N1)C(=O)N[C@@H](CC(C)C)C(=O)O | 5.3 | 1000 | 0.64
3 | CC[C@H](C)[C@H](NC(=O)[C@H](Cc1ccc(O)cc1)NC(=O)[C@@H]1CCCN1C(=O)[C@H](CCCNC(=N)N)NC(=O)[C@@H](N)CCCNC(=N)N)C(=O)N[C@@H](CC(C)C)C(=O)O [listing 2 of 2 here] |  | 25 | 
4 | CC[C@H](C)[C@H](NC(=O)[C@@H](CCCCN)NC(=O)[C@@H]1CCCN1C(=O)[C@H](CCCNC(=N)N)NC(=O)[C@H](CCCNC(=N)N)NC(=O)[C@@H]1CCCN1C(=O)[C@H](CCCCN)NC(=O)[C@H](CC(N)=O)NC(=O)[C@H](CCC(=O)O)NC(=O)[C@H](Cc1ccc(O)cc1)NC(=O)[C@H](CC(C)C)NC(=O)[C@@H]1CCC(=O)N1)C(=O)N[C@@H](CC(C)C)C(=O)O | 6.4 | <1 | 3.4
5 | CC[C@H](C)[C@H](NC(=O)[C@H](Cc1ccc(O)cc1)NC(=O)[C@@H]1CCCN1C(=O)[C@@H](N)CCCNC(=N)N)C(=O)N[C@@H](CC(C)C)C(=O)O | 10.4 |  | 
6 | CC[C@@H](C)[C@H](NC(=O)[C@H](Cc1ccc(O)cc1)NC(=O)[C@@H]1CCCN1C(=O)[C@H](CCCNC(=N)N)NC(=O)[C@@H](N)CCCNC(=N)N)C(=O)N[C@@H](CC(C)C)C(=O)O |  |  | 67
7 | CC[C@H](C)[C@H](NC(=O)[C@H](Cc1ccc(O)cc1)NC(=O)[C@@H]1CCCN1C(=O)[C@H](CCCNC(=N)N)NC(=O)[C@H](CCCNC(=N)N)NC(=O)[C@@H]1CCCN1C(=O)[C@H](CCCCN)NC(=O)[C@H](CC(N)=O)NC(=O)[C@H](CCC(=O)O)NC(=O)[C@H](Cc1ccccc1)NC(=O)[C@H](CC(C)C)NC(=O)[C@@H]1CCC(=O)N1)C(=O)N[C@@H](CC(C)C)C(=O)O | 4.9 | 100 | 102
8 | CC[C@H](C)[C@H](NC(=O)[C@@H](CC(C)C)NC(=O)[C@@H]1CCCN1C(=O)[C@H](CCCNC(=N)N)NC(=O)[C@H](CCCNC(=N)N)NC(=O)[C@@H]1CCCN1C(=O)[C@H](CCCCN)NC(=O)[C@H](CC(N)=O)NC(=O)[C@H](CCC(=O)O)NC(=O)[C@H](Cc1ccc(O)cc1)NC(=O)[C@H](CC(C)C)NC(=O)[C@@H]1CCC(=O)N1)C(=O)N[C@@H](CC(C)C)C(=O)O | 5.2 | 30 | 
9 | CC[C@H](C)[C@H](NC(=O)[C@H](Cc1ccccc1)NC(=O)[C@@H]1CCCN1C(=O)[C@H](CCCN=C(N)N)NC(=O)[C@H](CCCN=C(N)N)NC(=O)[C@@H]1CCCN1C(=O)[C@H](CCCCN)NC(=O)[C@H](CC(N)=O)NC(=O)[C@H](CCC(=O)O)NC(=O)[C@H](Cc1ccc(O)cc1)NC(=O)[C@H](CC(C)C)NC(=O)[C@@H]1CCC(=O)N1)C(=O)N[C@@H](CC(C)C)C(=O)O | 9.7 | 100 | 100
10 | CC[C@H](C)[C@@H]1NC(=O)[C@H](Cc2ccc(O)cc2)NC(=O)[C@@H]2CCCN2C(=O)[C@H](CCCNC(=N)N)NC(=O)[C@H](CCCNC(=N)N)NC(=O)[C@@H]2CCCN2C(=O)[C@H](CCCCN)NC(=O)[C@H](CC(N)=O)NC(=O)[C@H](CCC(=O)O)NC(=O)[C@H](Cc2ccc(O)cc2)NC(=O)[C@@H](NC(=O)[C@@H]2CCC(=O)N2)CSSC[C@@H](C(=O)O)NC1=O ([pGlu]CYENKPRRPYIC-OH; disulfide 2-13) | 5.3 | 100 | 3.4
11 | CC[C@H](C)[C@H](NC(=O)[C@H](Cc1ccc(O)cc1)NC(=O)[C@@H]1CCCN1C(=O)[C@@H](N)CCCN=C(N)N)C(=O)N[C@@H](CC(C)C)C(=O)O |  | 20 | 76
